Patent US11530186B2, “Inhibitors for the β-catenin / T-cell factor protein-protein interaction” (H. LEE MOFFITT CANCER CENTER AND RESEARCH INSTITUTE, INC., priority 2018, dated 2022)
Where two headings read alike, the source gives them in different places.

Target: T1, β-catenin/Tcf protein-protein interaction (Homo sapiens, UniProt P35222)
T1 construct: Wild-type β-catenin (residues 138-781) were cloned into a pET-28b vector; 6×histidine (C); made in house; host or cells: E. coli BL21 DE3
T1 sequence (P35222 138-781): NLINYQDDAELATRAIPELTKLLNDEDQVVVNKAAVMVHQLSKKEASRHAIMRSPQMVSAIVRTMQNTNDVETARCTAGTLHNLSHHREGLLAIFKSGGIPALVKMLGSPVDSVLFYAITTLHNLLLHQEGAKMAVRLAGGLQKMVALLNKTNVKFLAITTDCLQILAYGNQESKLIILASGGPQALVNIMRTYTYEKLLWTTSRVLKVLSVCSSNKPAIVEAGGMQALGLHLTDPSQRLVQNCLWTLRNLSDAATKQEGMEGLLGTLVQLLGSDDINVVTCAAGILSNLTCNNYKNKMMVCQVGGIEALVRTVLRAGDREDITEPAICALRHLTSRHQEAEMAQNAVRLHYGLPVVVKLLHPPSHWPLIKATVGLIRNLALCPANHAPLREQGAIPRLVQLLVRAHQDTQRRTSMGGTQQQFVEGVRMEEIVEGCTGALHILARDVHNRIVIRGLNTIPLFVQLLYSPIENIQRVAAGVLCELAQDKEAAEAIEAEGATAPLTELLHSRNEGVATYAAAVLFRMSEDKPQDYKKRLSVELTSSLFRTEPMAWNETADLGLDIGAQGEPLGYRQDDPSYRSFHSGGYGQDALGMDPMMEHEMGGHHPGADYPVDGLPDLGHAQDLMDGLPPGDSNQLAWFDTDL
Assay: FP competitive inhibition assay
Format: binding
Protocol: Protein Expression and Purification. Wild-type β-catenin (residues 138-781) were cloned into a pET-28b vector carrying a C-terminal 6×histidine (Novagen) and transformed into E. coli BL21 DE3 (Novagen). Cells were cultured in LB medium with 30 μg/mL kanamycin until the OD600 was approximately 0.8, and then protein expression was induced with 400 μM of IPTG at 20° C. overnight. Cells were lysed by sonication. The proteins were purified by Ni-NTA affinity chromatography (30210, Qiagen) and dialyzed against a buffer containing 20 mM of Tris (pH 8.8), 100 mM NaCl, 10% glycerol, and 3 mM DTT. The purity of β-catenin was set to >95% as determined by SDS-PAGE gel analysis. Native non-denaturing gel electrophoresis experiment and the thermal-shift assay on an iCycler iQ Real Time Detection System (Bio-Rad) were performed for each purified protein. In the thermal shift assay, protein unfolding was evaluated through measuring the fluorescence changes of fluorescent dye Sypro Orange with purified β-catenin proteins. A temperature increment of 1° C./min was applied to monitor protein stability and detect protein aggregation. CD spectra were measured on a J-815 spectropolarimeter (Jasco). All spectra were recorded using a 1 mm path-length quartz cell. The CD spectra were averaged over three scans, and the wavelength was scanned from 260 to 190 nm in step of 1 nm. All spectra were recorded at room temperature, and the baseline was corrected by subtracting the CD spectra of a blank control containing all of the substances except protein. Samples were prepared at a concentration around 1-5 μM in a buffer of 10 mM potassium phosphate and 100 mM potassium fluoride at pH 7.0 to ensure that the transmission of light through the sample was not restricted. All proteins were stable, and no aggregation was observed under storage or assay conditions. Proteins were aliquoted and stored at −80° C. C-terminally fluorescein-labeled human Tcf4 (residues 7-51) was synthesized and HPLC purified with purity >95%. The structures were validated by LC/MS (liquid chromatography/mass spectrometry).
FP Assays. The procedures for the FP competitive inhibition assays have been described previously (Zhang, M.; Huang, Z.; Yu, B.; Ji, H. New homogeneous high-throughput assays for inhibitors of β-catenin/Tcf protein-protein interactions Anal. Biochem. 2012, 424, 57-63; Zhang, M.; Catrow, J. L.; Ji, H. High-throughput selectivity assays for small-molecule inhibitors of β-catenin/T-cell factor protein-protein interactions. ACS Med. Chem. Lett. 2013, 4, 306-311). Briefly, all of the tested compounds were prepared as 10 mM DMSO stocks. In the primary screen, the concentrations of the compounds and DMSO were set to 50 μM and 1% (v/v). Only the compounds which FP signal decreases were greater than 50% in the single-point β-catenin/Tcf assay were evaluated by counter screen. […] In the FP competitive inhibition assay, 10 nM human β-catenin and 2.5 nM of C-terminally fluorescein-labeled human Tcf4 were incubated in an assay buffer of 137 mM NaCl, 2.7 mM KCl, 10 mM Na2HPO4, 2 mM KH2PO4, 100 μg/mL of bovine γ-globulin, and 0.01% Triton-X100 for 15 min at 4° C. Bovine γ-globulin and Triton-X100 were included in the assay buffer to decrease the likelihood of compound acting by aggregate formation. Different concentrations of the tested compounds in the assay buffer were added to each test plate to make a final volume of 100 μL. Each assay plate was covered black and gently mixed on an orbital shaker at 4° C. for 1.5 h to reach equilibrium before the polarization values were read. The IC50 value was determined by nonlinear least-square analysis of GraphPad Prism 5.0. The Ki values were derived (Nikolovska-Coleska, Z.; Wang, R.; Fang, X.; Pan, H.; Tomita, Y.; Li, P.; Roller, P. P.; Krajewski, K.; Saito, N. G.; Stuckey, J. A.; Wang, S. Development and optimization of a binding assay for the XIAP BIR3 domain using fluorescence polarization. Anal. Biochem. 2004, 332, 261-273). […]

[1] = Assay 1, mean ± SD (n = 3), read-out: Ki ± SD, Assay 1
[2] = Assay 2, mean ± SD (n = 3), read-out: Ki ± SD, Assay 2

| Ki [1] [µM] | Ki [2] [µM] | Ki (Assay 3, mean ± SD (n = 3), read-out: Ki ± SD, Assay 3) [µM] | Ki (Assay 4, mean ± SD (n = 3), read-out: Ki ± SD, Assay 4) [µM] | SMILES |
| --- | --- | --- | --- | --- |
| 3.2 ± 0.28 |  |  |  | COc1ccc2sc(CCc3c(CCc4ccc(Cl)cc4)c4cc(C(=O)NCCOc5ccc(Cl)cc5)ccc4n3CCc3nn[nH]n3)nc2c1 [Compound 50, 1-(2-(2H-tetrazol-5-yl)ethyl)-3-(4-chlorophenethyl)-N-(2-(4-chlorophenoxy)ethyl)-2-(2-(5-methoxybenzo[d]thiazol-2-yl)ethyl)-1H-indole-5-carboxamide] |
| 17 ± 1.6 |  |  |  | Cc1ccc(CCc2c(-c3cn[nH]c3)n(CCc3nn[nH]n3)c3ccc(C(=O)NCc4ccon4)cc23)cc1 [Compound 97, 1-(2-(2H-tetrazol-5-yl)ethyl)-N-(isoxazol-3-ylmethyl)-3-(4-methylphenethyl)-2-(1H-pyrazol-4-yl)-1H-indole-5-carboxamide] |
| 4.2 ± 0.29 | 6 ± 0.39 |  |  | COc1ccc2nc(C#Cc3c(CCC4CCOCC4)c4cc(C(=O)O)ccc4n3CCc3nn[nH]n3)sc2c1 [Compound 74, 1-(2-(2H-tetrazol-5-yl)ethyl)-2-((6-methoxybenzo[d]thiazol-2-yl)ethynyl)-3-(2-(tetrahydro-2H-pyran-4-yl)ethyl)-1H-indole-5-carboxylic acid] |
| 1.6 ± 0.11 |  |  |  | Cc1ccc(CCc2c(-c3cccs3)n(CCc3nn[nH]n3)c3ccc(C(=O)O)cc23)cc1 [Compound 77, 1-(2-(2H-tetrazol-5-yl)ethyl)-3-(4-methylphenethyl)-2-(thiophen-2-yl)-1H-indole-5-carboxylic acid] |
| 6.6 ± 0.44 | 41 ± 1.5 |  |  | O=C(O)c1ccc2c(c1)c(CCc1ccc(Cl)c(Cl)c1)cn2CCc1nn[nH]n1 [Compound 12, 1-(2-(2H-tetrazol-5-yl)ethyl)-3-(3,4-dichlorophenethyl)-1H-indole-5-carboxylic acid] |
| 35 ± 1.2 |  |  |  | O=C(O)c1ccc2c(c1)c(CCc1ccc3c(c1)OCCO3)cn2CCc1nn[nH]n1 [Compound 22, 1-(2-(2H-tetrazol-5-yl)ethyl)-3-(2-(2,3-dihydrobenzo[b][1,4]dioxin-6-yl)ethyl)-1H-indole-5-carboxylic acid] |
| 5.4 ± 0.76 | 9.5 ± 1.5 |  |  | COc1ccc2sc(CCc3c(CCc4ccc(Cl)cc4)c4cc(C(=O)NCC5CCOCC5)ccc4n3CCc3nn[nH]n3)nc2c1 [Compound 64, 1-(2-(2H-tetrazol-5-yl)ethyl)-3-(4-chlorophenethyl)-2-(2-(5-methoxybenzo[d]thiazol-2-yl)ethyl)-N-((tetrahydro-2H-pyran-4-yl)methyl)-1H-indole-5-carboxamide] |
| 29 ± 1.5 | > 51 |  |  | O=C(O)c1ccc2c(c1)c(CCc1nccs1)cn2CCc1nn[nH]n1 [Compound 15, 1-(2-(2H-tetrazol-5-yl)ethyl)-3-(2-(thiazol-2-yl)ethyl)-1H-indole-5-carboxylic acid] |
| 77 ± 4.5 |  |  |  | Cc1ccc(CCc2cn(CCC(=O)O)c3ccc(C(=O)O)cc23)cc1 [Compound 24, 1-(2-carboxyethyl)-3-(4-methylphenethyl)-1H-indole-5-carboxylic acid] |
| 0.18 ± 0.034 | 0.29 ± 0.026 | 0.34 ± 0.023 | 0.45 ± 0.028 | COc1ccc2sc(C#Cc3c(CCc4ccc(Cl)cc4)c4cc(C(=O)O)ccc4n3CCc3nn[nH]n3)nc2c1 [Compound 71, 1-(2-(2H-tetrazol-5-yl)ethyl)-3-(4-chlorophenethyl)-2-((5-methoxybenzo[d]thiazol-2-yl)ethynyl)-1H-indole-5-carboxylic acid] |
| > 51 |  |  |  | O=C(O)c1ccc2c(c1)c(CCc1ccc(N3CCOCC3)cc1)cn2CCc1nn[nH]n1 [Compound 19, 1-(2-(2H-tetrazol-5-yl)ethyl)-3-(4-morpholinophenethyl)-1H-indole-5-carboxylic acid] |
| 1.2 ± 0.28 | 3.2 ± 0.79 |  |  | Cc1ccc(CCc2c(-c3cc[nH]c3)n(CCc3nn[nH]n3)c3ccc(C(=O)O)cc23)cc1 [Compound 81, 1-(2-(2H-tetrazol-5-yl)ethyl)-3-(4-methylphenethyl)-2-(1H-pyrrol-3-yl)-1H-indole-5-carboxylic acid] |
| 28 ± 6.8 |  |  |  | O=C(O)CCn1c(CCc2nc3ccccc3s2)c(CCc2ccccc2)c2cc(C(=O)O)ccc21 [Compound 37, 2-(2-(Benzo[d]thiazol-2-yl)ethyl)-1-(2-carboxyethyl)-3-phenethyl-1H-indole-5 carboxylic acid] |
| 31 ± 5.8 |  |  |  | CONC(=O)c1ccc2c(c1)c(CCc1ccc(C)cc1)c(-c1ccsc1)n2CCc1nn[nH]n1 [Compound 91, 1-(2-(2H-tetrazol-5-yl)ethyl)-N-methoxy-3-(4-methylphenethyl)-2-(thiophen-3-yl)-1H-indole-5-carboxamide] |
| 0.6 ± 0.039 |  |  |  | COc1ccc2nc(C#Cc3c(CCc4ccc(Cl)cc4)c4cc(C(=O)O)ccc4n3CCc3nn[nH]n3)sc2c1 [Compound 72, 1-(2-(2H-tetrazol-5-yl)ethyl)-3-(4-chlorophenethyl)-2-((6-methoxybenzo[d]thiazol-2-yl)ethynyl)-1H-indole-5-carboxylic acid] |
| 0.75 ± 0.23 | 3.2 ± 0.24 |  |  | COc1ccc2sc(CCc3c(CCc4ccc(Cl)cc4)c4cc(C(=O)NCCc5ccc(Cl)cc5)ccc4n3CCc3nn[nH]n3)nc2c1 [Compound 49, 1-(2-(2H-tetrazol-5-yl)ethyl)-N,3-bis(4-chlorophenethyl)-2-(2-(5-methoxybenzo[d]thiazol-2-yl)ethyl)-1H-indole-5-carboxamide] |
| 31 ± 5.9 |  |  |  | O=C(O)c1ccc2c(c1)c(CCc1ccc(C(F)(F)F)cc1)cn2CCc1nn[nH]n1 [Compound 9, 1-(2-(2H-tetrazol-5-yl)ethyl)-3-(4-(trifluoromethyl)phenethyl)-1H-indole-5-carboxylic acid] |
| 1.4 ± 0.2 | 4.3 ± 0.39 |  |  | COc1ccc2sc(CCc3c(CCc4ccc(Cl)cc4)c4cc(C(=O)NCC5CCCCC5)ccc4n3CCc3nn[nH]n3)nc2c1 [Compound 63, 1-(2-(2H-tetrazol-5-yl)ethyl)-3-(4-chlorophenethyl)-N-(cyclohexylmethyl)-2-(2-(5-methoxybenzo[d]thiazol-2-yl)ethyl)-1H-indole-5-carboxamide] |

| SMILES | Ki [1] [µM] | Ki [2] [µM] | Ki (Assay 3, mean ± SD (n = 3), read-out: Ki ± SD, Assay 3) [µM] | Ki (Assay 4, mean ± SD (n = 3), read-out: Ki ± SD, Assay 4) [µM] |
| --- | --- | --- | --- | --- |
| COc1ccc2sc(CCc3c(CCc4ccc(Cl)cc4)c4cc(C(=O)NCC5CCNCC5)ccc4n3CCc3nn[nH]n3)nc2c1 [Compound 67, 4-((1-(2-(2H-tetrazol-5-yl)ethyl)-3-(4-chlorophenethyl)-2-(2-(5-methoxybenzo[d]thiazol-2-yl)ethyl)-1H-indole-5-carboxamido)methyl)piperidin-1-ium] | 5.9 ± 0.37 | > 22 |  |  |
